Results as given in US8153627B2, “Quinazoline linked pyrrolo[2,1-C][1, 4]benzodiazepine hybrids as potential anticancer agents and process for the preparation thereof” (Council of Scientific & Industrial Research, priority 2008, dated 2012).

Legend:
CCRF-CEM = test: Cytotoxicity SRB assay, CCRF-CEM; type: cell-based, human; conditions: Leukemia CCRF-CEM, 48 h exposure
Protocol: (§1) 5a, 5c and 5d was evaluated for in vitro anticancer activity against sixty human tumor cells derived from nine cancer types leukemia, non-small-cell lung, colon, CNS, melanoma, ovarian, prostate, and breast cancer) as shown in (Table 1 and 2). For the compound, dose response curves for each cell line were measured at a minimum of five concentrations at 10 fold dilutions. A protocol of 48 h continuous drug exposure was used and a sulforhodamine B (SRB) protein assay was used to estimate cell viability or growth. The concentration causing 50% cell growth inhibition (GI50), total cell growth inhibition (TGI 0% growth) and 50% cell death (LC50, −50% growth) compared with the control was calculated.

HL-60 (TB) = test: Cytotoxicity SRB assay, HL-60 (TB); type: cell-based, human; conditions: Leukemia HL-60 (TB), 48 h exposure
Protocol: as §1

RPMI-8226 = test: Cytotoxicity SRB assay, RPMI-8226; type: cell-based, human; conditions: Leukemia RPMI-8226, 48 h exposure
Protocol: as §1

NCI-H226 = test: Cytotoxicity SRB assay, NCI-H226; type: cell-based, human; conditions: Non-small cell lung NCI-H226, 48 h exposure
Protocol: as §1

NCI-H23 = test: Cytotoxicity SRB assay, NCI-H23; type: cell-based, human; conditions: Non-small cell lung NCI-H23, 48 h exposure
Protocol: as §1

NCI-H522 = test: Cytotoxicity SRB assay, NCI-H522; type: cell-based, human; conditions: Non-small cell lung NCI-H522, 48 h exposure
Protocol: as §1

HCT-116 = test: Cytotoxicity SRB assay, HCT-116; type: cell-based, human; conditions: Colon HCT-116, 48 h exposure
Protocol: as §1

HCT-15 = test: Cytotoxicity SRB assay, HCT-15; type: cell-based, human; conditions: Colon HCT-15, 48 h exposure
Protocol: as §1

SW-620 = test: Cytotoxicity SRB assay, SW-620; type: cell-based, human; conditions: Colon SW-620, 48 h exposure
Protocol: as §1

SF-539 = test: Cytotoxicity SRB assay, SF-539; type: cell-based, human; conditions: CNS SF-539, 48 h exposure
Protocol: as §1

U251 = test: Cytotoxicity SRB assay, U251; type: cell-based, human; conditions: CNS U251, 48 h exposure
Protocol: as §1

LOX IMVI = test: Cytotoxicity SRB assay, LOX IMVI; type: cell-based, human; conditions: Melanoma LOX IMVI, 48 h exposure
Protocol: as §1

MALME-3M = test: Cytotoxicity SRB assay, MALME-3M; type: cell-based, human; conditions: Melanoma MALME-3M, 48 h exposure
Protocol: as §1

M14 = test: Cytotoxicity SRB assay, M14; type: cell-based, human; conditions: Melanoma M14, 48 h exposure
Protocol: as §1

SK-MEL-5 = test: Cytotoxicity SRB assay, SK-MEL-5; type: cell-based, human; conditions: Melanoma SK-MEL-5, 48 h exposure
Protocol: as §1

UACC-257 = test: Cytotoxicity SRB assay, UACC-257; type: cell-based, human; conditions: Melanoma UACC-257, 48 h exposure
Protocol: as §1

UACC-62 = test: Cytotoxicity SRB assay, UACC-62; type: cell-based, human; conditions: Melanoma UACC-62, 48 h exposure
Protocol: as §1

OVCAR-3 = test: Cytotoxicity SRB assay, OVCAR-3; type: cell-based, human; conditions: Ovarian OVCAR-3, 48 h exposure
Protocol: as §1

786-0 = test: Cytotoxicity SRB assay, 786-0; type: cell-based, human; conditions: Renal 786-0, 48 h exposure
Protocol: as §1

A498 = test: Cytotoxicity SRB assay, A498; type: cell-based, human; conditions: Renal A498, 48 h exposure
Protocol: as §1

ACHN = test: Cytotoxicity SRB assay, ACHN; type: cell-based, human; conditions: Renal ACHN, 48 h exposure
Protocol: as §1

CAKI-1 = test: Cytotoxicity SRB assay, CAKI-1; type: cell-based, human; conditions: Renal CAKI-1, 48 h exposure
Protocol: as §1

TK-10 = test: Cytotoxicity SRB assay, TK-10; type: cell-based, human; conditions: Renal TK-10, 48 h exposure
Protocol: as §1

UO-31 = test: Cytotoxicity SRB assay, UO-31; type: cell-based, human; conditions: Renal UO-31, 48 h exposure
Protocol: as §1

NCI/ADR-RES = test: Cytotoxicity SRB assay, NCI/ADR-RES; type: cell-based, human; conditions: Breast NCI/ADR-RES, 48 h exposure
Protocol: as §1

MDA-MB-231/ATCC = test: Cytotoxicity SRB assay, MDA-MB-231/ATCC; type: cell-based, human; conditions: Breast MDA-MB-231/ATCC, 48 h exposure
Protocol: as §1

[1] = test system: sixty human tumor cells derived from nine cancer types; test: NCI sixty human tumor cell line screen (SRB), all lines / mean graph midpoints; type: cell-based; conditions: for Log10 LC50 mean graph midpoint (MG_MID): 50% cell death; for Log10 LC50 mean graph midpoint (MG_MID) / Log10 GI50 mean graph midpoint (MG_MID) / Log10 TGI mean graph midpoint (MG_MID): human tumor cell lines, 48 h exposure, SRB; for Log10 TGI mean graph midpoint (MG_MID): total cell growth inhibition
Protocol: as §1
The mean graph mid points of log10 TGI and log10 LC50 have shown similar pattern to the log10 GI50 mean graph mid points.

[2] = test system: duplex-form calf thymus DNA (CT-DNA); test: Thermal denaturation studies with calf thymus DNA; type: binding; conditions: for Change of DNA melting (ΔTm) over incubation time: 0 hr, 18 hr and 36 hr at 37° C.; for ΔTμ (° C.) after incubation at 37° C. for 0 h / ΔTμ (° C.) after incubation at 37° C. for 18 h: [PBD]:[DNA] molar ratio 1:5, CT-DNA 100 μM, ligand 20 μM, pH 7.00
Protocol: Compounds were subjected to thermal denaturation studies with duplex-form calf thymus DNA (CT-DNA) using an adaptation of a reported procedure. Working solutions in aqueous buffer (10 mM NaH2PO4/Na2HPO4, 1 mM Na2EDTA, pH 7.00+0.01) containing CT-DNA (100 μm in phosphate) and the PBD (20 μm) were prepared by addition of concentrated PBD solutions in DMSO to obtain a fixed [PBD]/[DNA] molar ratio of 1:5. The DNA-PBD solutions were incubated at 37° C. for 0, 18, and 36 h prior to analysis. Samples were monitored at 260 nm using a Beckman DU-7400 spectrophotometer fitted with high performance temperature controller, and heating was applied at 1° C. min^−1 in the 40-90° C. range. DNA helix coil transition temperatures (Tm) were obtained from the maxima in the (dA260)/dT derivative plots. Results are given as the mean±standard deviation from three determinations and are corrected for the effects of DMSO co-solvent using a linear correction term. Drug-induced alterations in DNA melting behaviour are given by: ΔTm=Tm(DNA+PBD)−Tm (DNA alone), where the Tm value for the PBD-free CT-DNA is 69.0±0.01.
The DNA binding activity for these novel C8-linked quinazoline-PBD hybrids has been examined by thermal denaturation studies using calf thymus (CT) DNA. […] Data for 5a-d and DC-81 are included in Table 4 for comparison.

Structure (SMILES) | GI50 (CCRF-CEM) [µM] | GI50 (HL-60 (TB)) [µM] | GI50 (RPMI-8226) [µM] | GI50 (NCI-H226) [µM] | GI50 (NCI-H23) [µM] | GI50 (NCI-H522) [µM] | GI50 (HCT-116) [µM] | GI50 (HCT-15) [µM] | GI50 (SW-620) [µM] | GI50 (SF-539) [µM] | GI50 (U251) [µM] | GI50 (LOX IMVI) [µM] | GI50 (MALME-3M) [µM] | GI50 (M14) [µM] | GI50 (SK-MEL-5) [µM] | GI50 (UACC-257) [µM] | GI50 (UACC-62) [µM] | GI50 (OVCAR-3) [µM] | ΔTμ (° C.) after incubation at 37° C. for 0 h [2] [°C] | ΔTμ (° C.) after incubation at 37° C. for 18 h [2] [°C] | also measured
COc1cc2c(cc1OCCCN1CCN(c3ncnc4ccccc34)CC1)N=C[C@@H]1CCCN1C2=O [Compound 5a] | 12 | 13 | 10 | 10 | 13.9 | 10.4 | 11.9 | 27.5 | 11.7 | 12.6 | 10 | 10 | 18.2 | 10.1 | 10 | 70.9 | 10 | 10 | 9.2 | 10.4 | GI50 (786-0): 11.8 µM; GI50 (A498): 16.1 µM; GI50 (ACHN): 43.4 µM; GI50 (CAKI-1): 13.6 µM; GI50 (TK-10): 16.6 µM; GI50 (UO-31): 13.2 µM; GI50 (NCI/ADR-RES): 13.4 µM; GI50 (MDA-MB-231/ATCC): 11.6 µM; Log10 LC50 mean graph midpoint (MG_MID) [1]: −4.99; Log10 GI50 mean graph midpoint (MG_MID) [1]: −7.68; GI50 ([1]; sixty cell lines in nine cell panels, read-out: GI50 against sixty cell lines in nine cell panels): < 0.02 µM; Log10 TGI mean graph midpoint (MG_MID) [1]: −6.66; Change of DNA melting (ΔTm) over incubation time [2]: gradually increased
COc1cc2c(cc1OCCCCN1CCN(c3ncnc4ccccc34)CC1)N=C[C@@H]1CCCN1C2=O [Compound 5b] | – | – | – | – | – | – | – | – | – | – | – | – | – | – | – | – | – | – | 9.7 | 10.9 | –
COc1cc2c(cc1OCCCCCN1CCN(c3ncnc4ccccc34)CC1)N=C[C@@H]1CCCN1C2=O [Compound 5c] | 32.5 | 65.2 | 45 | 17.8 | 15.8 | 65.3 | 21 | 29.7 | 17.6 | 30.3 | 15.8 | 18.2 | 24.2 | 14.5 | 20.9 | 22.9 | 15.1 | 24.9 | 10.3 | 11.8 | GI50 (786-0): 18.4 µM; GI50 (A498): 20.1 µM; GI50 (ACHN): 22 µM; GI50 (CAKI-1): 25.8 µM; GI50 (TK-10): 38.2 µM; GI50 (UO-31): 22.1 µM; GI50 (NCI/ADR-RES): 17.7 µM; GI50 (MDA-MB-231/ATCC): 19.9 µM; Log10 LC50 mean graph midpoint (MG_MID) [1]: −4.19; Log10 GI50 mean graph midpoint (MG_MID) [1]: −5.68; Log10 TGI mean graph midpoint (MG_MID) [1]: −4.86; Change of DNA melting (ΔTm) over incubation time [2]: gradually increased
COc1cc2c(cc1OCCCCCCN1CCN(c3ncnc4ccccc34)CC1)N=C[C@@H]1CCCN1C2=O [Compound 5d] | 13.4 | 19.5 | 16.8 | 18.4 | 22.5 | 18.3 | 14.6 | 18.4 | 25.9 | 33.7 | 19.8 | 15 | 36.2 | 18.8 | 23.3 | 15.9 | 22.5 | 26.3 | 10.6 | 12.2 | GI50 (786-0): 14.9 µM; GI50 (A498): 22 µM; GI50 (ACHN): 46.1 µM; GI50 (CAKI-1): 12.9 µM; GI50 (TK-10): 31.4 µM; GI50 (UO-31): 15.2 µM; GI50 (NCI/ADR-RES): 18.7 µM; GI50 (MDA-MB-231/ATCC): 14.2 µM; Log10 LC50 mean graph midpoint (MG_MID) [1]: −4.96; Log10 GI50 mean graph midpoint (MG_MID) [1]: −6.49; Log10 TGI mean graph midpoint (MG_MID) [1]: −5.85; Change of DNA melting (ΔTm) over incubation time [2]: gradually increased
COc1cc2c(cc1O)N=CC1CCCN1C2=O (centres unmarked) [DC-81, reference compound] | – | – | – | – | – | – | – | – | – | – | – | – | – | – | – | – | – | – | 0.3 | 0.7 | –
